Test results reported in paper PMC9569940, “Discovery and In Vivo Efficacy of Trace Amine-Associated Receptor 1 (TAAR1) Agonist 4-(2-Aminoethyl)-N-(3,5-dimethylphenyl)piperidine-1-carboxamide Hydrochloride (AP163) for the Treatment of Psychotic Disorders” (International Journal of Molecular Sciences, 2022).
pEC50: −log10 of the molar value. “Also recorded” adds a separate entry of the source. Structures can show the parent of a compound that is named as a salt.

Tests used:
[1] = biological target: T1, TAAR1 (Homo sapiens, UniProt Q96RJ0); experiment: BRET cAMP biosensor (EPAC) assay of TAAR1 agonistic activity in transiently transfected HEK-293 cells; assay type: cell-based; parameters: key to Agonistic Activity (class Inactive): Inactive: Producing less than 20% activation of TAAR1 relative to 1 μM tyramine hydrochloride; conditions: for pEC50 / EC50, μM: TAAR1 agonistic activity, concentration-response; for Agonistic Activity at 1 μM, %: compound at 1 μM; for Agonistic Activity at 1 μM, % / activation at 10 µM: compared to 1 μM tyramine hydrochloride (positive control), primary screening; for TAAR1 Activity (active / inactive, in words): agonistic activity in words; for Agonistic Activity (class Inactive): primary screening at 1 μM or 10 μM, relative to 1 μM tyramine hydrochloride; for activation at 10 µM: HEK293, compound at 10 μM (footnote c)
T1 construct: expressed in transfected cells; host or cells: HEK-293 cells, transient transfection
T1 sequence (Q96RJ0 1-339): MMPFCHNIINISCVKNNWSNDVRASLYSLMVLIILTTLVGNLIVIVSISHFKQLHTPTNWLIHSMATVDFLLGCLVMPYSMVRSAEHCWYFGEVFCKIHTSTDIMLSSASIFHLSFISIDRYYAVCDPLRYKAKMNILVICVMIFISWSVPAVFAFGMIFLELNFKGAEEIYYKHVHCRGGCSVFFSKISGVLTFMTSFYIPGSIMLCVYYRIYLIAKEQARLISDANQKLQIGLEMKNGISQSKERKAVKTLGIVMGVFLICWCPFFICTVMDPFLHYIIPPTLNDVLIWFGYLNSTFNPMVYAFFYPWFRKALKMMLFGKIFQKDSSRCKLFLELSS
Method: Compounds 7–29 synthesized as described above (as well the initial hit compound 1 used as a comparator) were tested in the Bioluminescence Resonance Energy Transfer approach (BRET) assay using HEK-293 cells transiently transfected with cDNA for TAARs as well as cAMP BRET biosensor (EPAC) protein. The compounds were initially tested at 1 μM or 10 μM concentrations and those producing <20% activation of TAAR1 (relative to 1 μM tyramine hydrochloride) were not pursued further. The active compounds were further evaluated in a dose–response mode in order to determine their EC50 values.
The Bioluminescence Resonance Energy Transfer approach (BRET) has been used for functional activity experiments. HEK-293 cells were transiently transfected with cDNA for TAARs and cAMP BRET biosensor (EPAC) protein and then plated in a 96-well plate as described. All compounds were tested at the initial concentrations of 1 μM or 10 μM. Then, for active compounds, a concentration–response analysis was performed in order to calculate the EC50 values. Natural agonist of TAAR1 tyramine hydrochloride was used as a positive control.

[2] = tested on: dopamine transporter knockout (DAT-KO) rats; experiment: DAT-KO rat hyperlocomotion test; assay type: in vivo; conditions: for Reduction in hyperlocomotion of DAT-KO rats: i.p., 90 min locomotion test, dose range 5–15 mg/kg for 18
Method: Compounds 9, 17–19 were evaluated in dopamine transporter knockout (DAT-KO) rats characterized with psychosis-like hyperlocomotion activity. The ability of compounds to reduce the hyperlocomotion in these genetically modified animals generally deemed as an adequate model of psychosis-like states and schizophrenia was expected to unveil the potential of these compounds as potential therapies for these psychiatric disorders.
Twelve Wistar dopamine transporter knockout (DAT-KO) female rats were utilized for assessment of drugs’ activity on hyperlocomotion. Animals were maintained on a 12/12 light/dark cycle at the room temperature maintained between 20 °C and 23 °C with a relative humidity maintained between 30% and 70%. Chow and water were provided ad libitum for the duration of the studies.
All compounds were dissolved in physiological saline (0.9% solution of NaCl) and intraperitoneally injected in volume 10 mL/kg immediately before locomotion testing.
Rats were intraperitoneally injected with a compound solution or vehicle (saline) and were immediately placed in Plexiglas boxes 40 cm × 40 cm × 40 cm for 90 min. Noldus EthoVision software was used to measure the distance moved by the animals.

[3] = Solubility; assay type: physicochemical; conditions: reason for not progressing to in vivo tests
[4] = biological target: T1, TAAR1; parameters: method as in PMID 11723224; conditions: not tested in this paper; cited from earlier work

Row | Compound | pEC50 [1] | Agonistic Activity (class Inactive) [1] | activation at 10 µM [1] [%] | further results
1 | Cl.NCCC1CCN(C(=O)Nc2ccccc2)CC1 [Compound 1, 4-(2-Aminoethyl)-N-phenylpiperidine-1-carboxamide hydrochloride] | 6.29 | – | – | Agonistic Activity at 1 μM, % [1]: 65%
2 | Cc1ccc(NC(=O)N2CCC(CCN)CC2)cc1.Cl [Compound 7, 4-(2-Aminoethyl)-N-(4-methylphenyl)piperidine-1-carboxamide hydrochloride] | – | Inactive ^b | – | TAAR1 Activity (active / inactive, in words) [1]: Inactive
3 | Cl.NCCC1CCN(C(=O)Nc2cccc(F)c2)CC1 [Compound 8, 4-(2-Aminoethyl)-N-(3-fluorophenyl)piperidine-1-carboxamide hydrochloride] | – | Inactive | – | –
4 | Cc1cccc(NC(=O)N2CCC(CCN)CC2)c1.Cl [Compound 9, 4-(2-Aminoethyl)-N-(3-methylphenyl)piperidine-1-carboxamide hydrochloride] | 7.28 | – | – | TAAR1 Activity (active / inactive, in words) [1]: Active; Agonistic Activity at 1 μM, % [1]: 89%; Reduction in hyperlocomotion of DAT-KO rats [2]: absence of in vivo efficacy
5 | Cc1ccccc1NC(=O)N1CCC(CCN)CC1.Cl [Compound 10, 4-(2-Aminoethyl)-N-(2-methylphenyl)piperidine-1-carboxamide hydrochloride] | – | Inactive | – | TAAR1 Activity (active / inactive, in words) [1]: Inactive
6 | Cl.NCCC1CCN(C(=O)Nc2ccc(F)cc2)CC1 [Compound 11, 4-(2-Aminoethyl)-N-(4-fluorophenyl)piperidine-1-carboxamide hydrochloride] | 6.69 | – | – | EC50, μM [1]: submicromolar; Agonistic Activity at 1 μM, % [1]: 84%
7 | Cl.NCCC1CCN(C(=O)Nc2cc(F)ccc2F)CC1 [Compound 12, 4-(2-Aminoethyl)-N-(2,5-difluorophenyl)piperidine-1-carboxamide hydrochloride] | 6.56 | – | – | TAAR1 Activity (active / inactive, in words) [1]: Active; Agonistic Activity at 1 μM, % [1]: 75%
8 | Cl.NCCC1CCN(C(=O)Nc2ccc(F)cc2F)CC1 [Compound 13, 4-(2-Aminoethyl)-N-(2,4-difluorophenyl)piperidine-1-carboxamide hydrochloride] | – | Inactive | – | TAAR1 Activity (active / inactive, in words) [1]: Inactive
9 | Cl.NCCC1CCN(C(=O)Nc2cc(F)cc(F)c2)CC1 [Compound 14, 4-(2-Aminoethyl)-N-(3,5-difluorophenyl)piperidine-1-carboxamide hydrochloride] | – | Inactive | – | TAAR1 Activity (active / inactive, in words) [1]: Inactive
10 | Cc1ccc(NC(=O)N2CCC(CCN)CC2)cc1F.Cl [Compound 15, 4-(2-Aminoethyl)-N-(3-fluoro-4-methylphenyl)piperidine-1-carboxamide hydrochloride] | – | Inactive | – | EC50, μM [1]: inactive
11 | Cc1cc(NC(=O)N2CCC(CCN)CC2)ccc1F [Compound 16, 4-(2-Aminoethyl)-N-(4-fluoro-3-methylphenyl)piperidine-1-carboxamide hydrochloride] | 6.84 | – | 107 | –
12 | Cc1ccc(NC(=O)N2CCC(CCN)CC2)cc1C.Cl [Compound 17, 4-(2-Aminoethyl)-N-(3,4-dimethylphenyl)piperidine-1-carboxamide hydrochloride] | 7.48 | – | 84 | Reduction in hyperlocomotion of DAT-KO rats [2]: absence of in vivo efficacy
13 | Cc1cc(C)cc(NC(=O)N2CCC(CCN)CC2)c1.Cl [Compound 18, 4-(2-Aminoethyl)-N-(3,5-dimethylphenyl)piperidine-1-carboxamide hydrochloride] | 6.95 | – | 85 | Effect on DAT-KO hyperlocomotion at 5 mg/kg ([2]; 5 mg/kg i.p., dynamics for 90 min, two-way ANOVA): did not reveal significant effect; Effect on DAT-KO hyperlocomotion at 10 mg/kg ([2]; 10 mg/kg i.p., 90 min, two-way ANOVA): significantly decreased hyperlocomotion; Effect on DAT-KO hyperlocomotion at 15 mg/kg ([2]; 15 mg/kg i.p., 90 min, two-way ANOVA): significantly decreased DAT-KO hyperlocomotion; Reduction in hyperlocomotion of DAT-KO rats ([2]; listed as 18 (AP163)): statistically significant, dose-dependent reduction; also recorded: significantly attenuated DAT-KO hyperlocomotion; Reduction in hyperlocomotion of DAT-KO rats ([2]; listed as AP163): statistically significant and dose-dependent reduction in hyperlocomotion
14 | Cc1ccc(C)c(NC(=O)N2CCC(CCN)CC2)c1.Cl [Compound 19, 4-(2-Aminoethyl)-N-(2,5-dimethylphenyl)piperidine-1-carboxamide hydrochloride] | 7.38 | – | 80 | Reduction in hyperlocomotion of DAT-KO rats [2]: absence of in vivo efficacy
15 | Cc1cccc(NC(=O)N2CCC(CCN)CC2)c1C [Compound 20, 4-(2-Aminoethyl)-N-(2,3-dimethylphenyl)piperidine-1-carboxamide hydrochloride] | 6.04 | – | 82 | –
16 | Cl.NCCC1CCN(C(=O)Nc2cccc(C(F)(F)F)c2)CC1 [Compound 21, 4-(2-Aminoethyl)-N-(3-(trifluoromethyl)phenyl)piperidine-1-carboxamide hydrochloride] | 7.46 | – | 96 | Solubility [3]: poor solubility
17 | COc1ccc(C)cc1NC(=O)N1CCC(CCN)CC1 [Compound 22, 4-(2-Aminoethyl)-N-(2-methoxy-5-methylphenyl)piperidine-1-carboxamide hydrochloride] | 5.72 | – | 84 | –
18 | Cl.NCCC1CCN(C(=O)Nc2cccc(Cl)c2)CC1 [Compound 23, 4-(2-Aminoethyl)-N-(3-chlorophenyl)piperidine-1-carboxamide hydrochloride] | – | Inactive | – | –
19 | NCCC1CCN(C(=O)c2ccccc2)CC1 [Compound 24, (4-(2-Aminoethyl)piperidin-1-yl)(phenyl)methanone hydrochloride] | 6.20 | – | 31 | –
20 | Cc1cccc(C(=O)N2CCC(CCN)CC2)c1 [Compound 25, (4-(2-Aminoethyl)piperidin-1-yl)(m-tolyl)methanone] | 6.20 | – | 41 | –
21 | Cl.NCCC1CCN(S(=O)(=O)c2ccccc2)CC1 [Compound 26, 2-[1-(Phenylsulfonyl)piperidin-4-yl]ethanamine hydrochloride] | – | Inactive | – | –
22 | Cl.NCCC1CCN(S(=O)(=O)c2ccc(F)cc2)CC1 [Compound 27, 2-{1-[(4-Fluorophenyl)sulfonyl]piperidin-4-yl}ethanamine hydrochloride] | – | Inactive | – | –
23 | Cc1ccc(S(=O)(=O)N2CCC(CCN)CC2)cc1.Cl [Compound 28, 2-{1-[(4-Methylphenyl)sulfonyl]piperidin-4-yl}ethanamine hydrochloride] | – | Inactive | – | –
24 | CN1CCC(CCN)CC1.Cl.Cl [Compound 29, 2-(1-Methylpiperidin-4-yl)ethan-1-amine dihydrochloride] | – | Inactive | – | TAAR1 Activity (active / inactive, in words) [1]: inactivity
25 | CCc1[nH]nc(C(=O)Nc2ccc([C@H]3CNCCO3)cc2)c1C [Ralmitaront] | – | – | – | TAAR1 Activity (reference ligand) [4]: Active
